# Assay results reported in PubChem BioAssay (NCI).
#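 At the GI50, growth is halved. At the TGI there is no net growth.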
# Legend:
# Assay in all cases: NCI tumour cell line growth inhibition, 384-well format
# [1] = tested on: NCI-H322M lung
# [2] = tested on: NCI-H23 lung
# [3] = tested on: NCI-H522 lung
# [4] = tested on: HOP-92 NSCLC
# [5] = tested on: M14 melanoma
# [6] = tested on: SK-MEL-5 melanoma
# [7] = tested on: RPMI-8226 leukemia
# [8] = tested on: RXF 393 renal
# [9] = tested on: SNB-75 CNS
# [10] = tested on: A498 renal
# [11] = tested on: NCI-H226 lung
# [12] = tested on: SF-539 CNS
# [13] = tested on: U251 glioblastoma
# [14] = tested on: A549 NSCLC
# [15] = tested on: UACC-62 melanoma
# [16] = tested on: SNB-19 CNS
# [17] = tested on: EKVX NSCLC
# [18] = tested on: LOX IMVI melanoma
# [19] = tested on: HCT-15 colon
# [20] = tested on: SK-OV-3 ovarian
# [21] = tested on: MDA-MB-435 melanoma
# [22] = tested on: UACC-257 melanoma
# [23] = tested on: HT29 colon
# [24] = tested on: COLO 205 colon
# [25] = tested on: SK-MEL-28 melanoma
# [26] = tested on: SF-268 CNS
# [27] = tested on: MOLT-4 leukemia
# [28] = tested on: SF-295 CNS
# [29] = tested on: MDA-MB-468 breast
# [30] = tested on: NCI/ADR-RES ovarian
# [31] = tested on: BT-549 breast
# [32] = tested on: T-47D breast
# [33] = tested on: HL-60(TB) leukemia
# [34] = tested on: OVCAR-4 ovarian
# [35] = tested on: MALME-3M melanoma
# [36] = tested on: IGROV1 ovarian
# [37] = tested on: SN12C renal
# [38] = tested on: ACHN renal
# [39] = tested on: NCI-H460 NSCLC
# [40] = tested on: OVCAR-8 ovarian
# [41] = tested on: DU-145 prostate
# [42] = tested on: HCT-116 colon
# [43] = tested on: MCF7 breast
# [44] = tested on: HOP-62 NSCLC
# [45] = tested on: SR leukemia
# [46] = tested on: MDA-MB-231 breast
# [47] = tested on: CAKI-1 renal
# [48] = tested on: TK-10 renal
# [49] = tested on: OVCAR-3 ovarian
# [50] = tested on: KM12 colon
# [51] = tested on: OVCAR-5 ovarian
# [52] = tested on: PC-3 prostate
# [53] = tested on: HCC-2998 colon
# [54] = tested on: HS 578T breast
smiles,measurement,setting,value
CNC(=O)c1cc(COc2nnc(Nc3ccc(Cl)cc3)c3ccoc23)ccn1,GI50,[1],11.9 µM
same,TGI,[1],25.1 µM
same,GI50,[2],2.45 µM
same,TGI,[2],5.19 µM
same,GI50,[3],5.23 µM
same,TGI,[3],17 µM
same,GI50,[4],4.23 µM
same,TGI,[4],14.2 µM
same,GI50,[5],19.3 µM
same,TGI,[5],38.6 µM
same,GI50,[6],8.37 µM
same,TGI,[6],20.7 µM
same,GI50,[7],14.1 µM
same,TGI,[7],39.9 µM
same,GI50,[8],2.84 µM
same,TGI,[8],8.62 µM
same,GI50,[9],3.09 µM
same,TGI,[9],11 µM
same,GI50,[10],9.38 µM
same,TGI,[10],21.3 µM
same,GI50,[11],15.2 µM
same,TGI,[11],29.5 µM
same,GI50,[12],1.49 µM
same,TGI,[12],3.07 µM
same,GI50,[13],10.2 µM
same,TGI,[13],21.9 µM
same,GI50,[14],5.43 µM
same,TGI,[14],19.1 µM
same,GI50,[15],3.51 µM
same,TGI,[15],12.2 µM
same,GI50,[16],13.1 µM
same,TGI,[16],26 µM
same,GI50,[17],13.6 µM
same,TGI,[17],26.8 µM
same,GI50,[18],18.6 µM
same,TGI,[18],43.8 µM
same,GI50,[19],11.8 µM
same,TGI,[19],27.3 µM
same,GI50,[20],2.8 µM
same,TGI,[20],9.01 µM
same,GI50,[21],19.1 µM
same,TGI,[21],37.5 µM
same,GI50,[22],7.95 µM
same,TGI,[22],20.8 µM
same,GI50,[23],2.4 µM
same,TGI,[23],5.67 µM
same,GI50,[24],20 µM
same,TGI,[24],37.2 µM
same,GI50,[25],5.17 µM
same,TGI,[25],17.6 µM
same,GI50,[26],3.03 µM
same,TGI,[26],8.04 µM
same,GI50,[27],34.8 µM
same,TGI,[27],> 100 µM
same,GI50,[28],2.4 µM
same,TGI,[28],5.78 µM
same,GI50,[29],2.29 µM
same,TGI,[29],4.86 µM
same,GI50,[30],8.44 µM
same,TGI,[30],20.8 µM
same,GI50,[31],9.44 µM
same,TGI,[31],21.9 µM
same,GI50,[32],15.4 µM
same,TGI,[32],46.9 µM
same,GI50,[33],> 100 µM
same,TGI,[33],> 100 µM
same,GI50,[34],5.31 µM
same,TGI,[34],16.6 µM
same,GI50,[35],5.69 µM
same,TGI,[35],18 µM
same,GI50,[36],12.2 µM
same,TGI,[36],26.7 µM
same,GI50,[37],12.9 µM
same,TGI,[37],31.7 µM
same,GI50,[38],11.1 µM
same,TGI,[38],25.5 µM
same,GI50,[39],8.81 µM
same,TGI,[39],21 µM
same,GI50,[40],1.96 µM
same,TGI,[40],3.68 µM
same,GI50,[41],12.4 µM
same,TGI,[41],25.2 µM
same,GI50,[42],4.08 µM
same,TGI,[42],14.9 µM
same,GI50,[43],4.71 µM
same,TGI,[43],17.6 µM
same,GI50,[44],4.89 µM
same,TGI,[44],15.5 µM
same,GI50,[45],2.5 µM
same,TGI,[45],4.87 µM
same,GI50,[46],4.69 µM
same,TGI,[46],18.3 µM
same,GI50,[47],3.38 µM
same,TGI,[47],11.7 µM
same,GI50,[48],10.3 µM
same,TGI,[48],22.3 µM
same,GI50,[49],14.3 µM
same,TGI,[49],27.9 µM
same,GI50,[50],3.29 µM
same,TGI,[50],8.84 µM
same,GI50,[51],21.9 µM
same,TGI,[51],40.2 µM
same,GI50,[52],11.3 µM
same,TGI,[52],25.5 µM
same,GI50,[53],11.1 µM
same,TGI,[53],30 µM
same,GI50,[54],2.73 µM
same,TGI,[54],8.17 µM
